T1: human pancreatic GCK (Homo sapiens, UniProt P35557)
T1 construct: hexahistidine (N); made in house; host or cells: glucokinase auxotroph BM5340(DE3)
T1 sequence (P35557 1-465): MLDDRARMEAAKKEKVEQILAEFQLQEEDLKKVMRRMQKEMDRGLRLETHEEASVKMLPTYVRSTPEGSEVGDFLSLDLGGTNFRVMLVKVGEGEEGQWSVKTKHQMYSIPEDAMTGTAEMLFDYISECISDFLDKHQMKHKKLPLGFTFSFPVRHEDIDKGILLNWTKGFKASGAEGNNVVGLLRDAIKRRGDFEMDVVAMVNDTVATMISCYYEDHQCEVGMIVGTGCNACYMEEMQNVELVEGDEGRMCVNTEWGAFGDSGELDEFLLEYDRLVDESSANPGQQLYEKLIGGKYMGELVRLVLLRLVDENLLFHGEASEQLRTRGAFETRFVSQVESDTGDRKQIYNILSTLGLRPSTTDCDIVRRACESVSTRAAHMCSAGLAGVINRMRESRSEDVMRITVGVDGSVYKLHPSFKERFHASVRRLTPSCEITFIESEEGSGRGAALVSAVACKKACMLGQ


Tests used:
Bcl-xL = molecular target: T2, Bcl-xL (Homo sapiens, UniProt Q07817, DEL45-84); assay: Fluorescence polarization competition with f-BH3 for binding to Bcl-xL
T2 construct: made in house
T2 sequence (Q07817 with tags, fused parts or gaps DEL45-84): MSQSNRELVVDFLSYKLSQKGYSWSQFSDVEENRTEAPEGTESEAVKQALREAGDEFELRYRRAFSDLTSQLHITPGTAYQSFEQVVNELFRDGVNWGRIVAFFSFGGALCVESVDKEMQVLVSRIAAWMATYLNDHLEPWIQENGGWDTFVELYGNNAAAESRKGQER
Method: Exon 1 of human bcl-xl lacking the C-terminal residues 189–233 was obtained from Stanley Korsmeyer (Addgene plasmid 8755) and site-directed mutagenesis was performed to create the Δ45–84, Δ210–233 variant. Bcl-xL was expressed and purified using a modified procedure described previously. Briefly, Bcl-xL was purified by nickel affinity chromatography and dialyzed against potassium phosphate buffer (20 mM, pH 7.4) containing NaCl (50 mM), EDTA (1 mM), and DTT (10 mM). Protein was applied to a Superdex 200 10/30 HR size-exclusion column, at a flow rate of 0.02 mL/min, to remove aggregate and oligomers prior to binding assays.
A fluorescence polarization assay developed by Zhang, et al. was utilized to measure interactions between BAD and its binding partners. Two 21-residue FITC-labeled peptides containing the BH3 domain of BAD were synthesized and purified to >95% by Peptide2.0 (f-BH3 = NLWAAQRYGRELRRMSDK(FITC)FVD; f-pBH3 = NLWAAQRYGRELRRM(p)SDK(FITC) FVD). Polarization was measured at room temperature with an excitation wavelength of 485 nm and an emission wavelength of 530 nm using a SpectraMax M5 microplate reader (Molecular Devices). Experiments to measure binding constants of the fluorescent peptides to Bcl-xL or GCK were performed in black 96-well plates. Each well contained 15 nM peptide, 60 μL BAD buffer (0.1 M Tris, 0.1 M KCl, 0.5 M arginine, 2.5 mM CHAPS, 5 mM TCEP, 10% glycerol, pH 8.5) and variable concentrations of Bcl-xL (0–2.25 μM) or GCK (0–400 μM) in assay buffer (20 mM phosphate buffer, pH 7.4, 1 mM EDTA, 50 mM NaCl, 10 mM DTT) in a final volume of 120 μL. High GCK concentrations were chosen in an effort to detect a signal indicating a binding event. Assays containing GCK also contained 250 mM glucose. […] Plates were incubated at room temperature in the dark for 15 min prior to polarization measurements.

human pancreatic GCK [1] = molecular target: T1, human pancreatic GCK; assay: Isothermal titration calorimetry with GCK; format: binding; conditions: peptide up to 50 μM into GCK (10 μM), presence and absence of 0.2 M glucose, potassium phosphate 25 mM, DMSO 5%, 25°C
Method: (§1) Recombinant human pancreatic GCK containing an N-terminal hexahistidine tag was produced in the glucokinase auxotroph BM5340(DE3) and purified using a previously described procedure. TEV protease was expressed as a GST-fusion protein from a pGEX plasmid encoding the S219V variant, provided by David Waugh (Addgene plasmid 8827). Expression was induced with IPTG (1 mM) for 4 h at 30°C. Cell pellets were resuspended in Tris buffer (50 mM, pH 8.0) containing NaCl (100 mM), glycerol (10% v/v), benzamidine (1 mM) and dithiothreitol (10 mM) and lysed via French Press. Polyethyleneimine (0.1%) was added to the lysate and protein was purified on a glutathione-affinity column (GSTrap, GE Sciences). TEV protease was flash frozen and stored at -80°C for up to 1 month.
Isothermal titration calorimetry was performed at 25°C using a MicroCal VP-ITC (GE Healthcare) instrument. Bcl-xL (100 μM) in BAD buffer (0.1 M Tris, 0.1 M KCl, 0.5 M arginine, 2.5 mM CHAPS, 5 mM TCEP, 10% glycerol, pH 8.5) was titrated into the calorimeter cell containing size-exclusion chromatography purified BAD-GST (10–18 μM) in 4 μL injections. A 21-residue phosphorylated peptide containing the BH3 domain of BAD was synthesized and purified to >95% by Peptide2.0 (pBH3 = NLWAAQRYGRELRRM(p)SDKFVD). The peptide (300 μM) in potassium phosphate buffer (25 mM) containing KCl (25 mM), TCEP (4 mM) and DMSO (5%) with and without glucose (200 mM) was titrated into the cell containing GCK (10 μM) previously dialyzed against the same buffer. GCK (100 μM) in BAD buffer was titrated into the cell containing S118D BAD-GST (10–15 μM) in 13 μL injections. Data were analyzed using Origin software.

human pancreatic GCK [2] = molecular target: T1, human pancreatic GCK; assay: GCK activity, G6PDH-linked assay (lab's routine assay, 25°C); format: biochemical
Method: as §1
GCK activity was assayed using a glucose 6-phosphate dehydrogenase (G6PDH)-linked assay at 25°C. 50 nM GCK was assayed in buffer containing HEPES (100 mM, pH 7.4), KCl (50 mM), NADP^+ (0.5 mM), DTT (10 mM), MgCl2 (7 mM), G6PDH (1.5 U) and glucose (0–100 mM) in a total volume of […]. Addition of ATP (6 mM) initiated the reaction. Production of NADPH was measured at 340 nm. To determine the effect of BAD on GCK activity, 5 μL of BAD or buffer control was added to the reaction in a final volume of 100 μL. K0.5 values were determined by fitting to the Hill equation. The effect of BAD on GCK activity is reported as the percent rate increase at individual glucose concentrations, calculated as the average of a minimum of four rates of BAD-containing assays divided by the average of rates of BAD buffer-containing assays. The results represent the average of at least three independent preparations of pure BAD.

IC50 (Bcl-xL; 200 nM f-BH3, 50 nM Bcl-xL, competitor 0–50 μM, room temperature, 15 min)	Increase in GCK rate (human pancreatic GCK [2]; 0.8 mM glucose, BAD-GST ≥ 2 μM, average of at least three independent BAD preparations)	Increase in GCK activity (abstract) (human pancreatic GCK [2]; high concentrations of recombinant BAD, glucose well below K0.5)	Molecule	Ability to interact with Bcl-xL (in words) (Bcl-xL; ITC and fluorescence polarization assays)	Heat change on addition to GCK (ITC) (human pancreatic GCK [1])	Heat change on addition to GCK (ITC) (human pancreatic GCK [1]; listed as phosphorylated BH3 peptide)	Hill coefficient H of GCK in presence of pBH3 (human pancreatic GCK [2]; Fig 6B, GCK alone: H = 1.4)	K0.5 (glucose) of GCK in presence of pBH3 (human pancreatic GCK [2]; Fig 6B, GCK alone: K0.5 = 4.6 mM, Hill equation fit)	kcat of GCK in presence of pBH3 (human pancreatic GCK [2]; Fig 6B, GCK alone: kcat = 33.2 s^-1)	Change in GCK activity, peptide up to 50 μM (human pancreatic GCK [2]; peptide concentrations up to 50 μM)	Effect on kcat, K0.5 or Hill coefficient of GCK (peptide) (human pancreatic GCK [2]; peptide up to 5 μM)	Effect on kcat, K0.5 or Hill coefficient of GCK (BAD-GST) (human pancreatic GCK [2]; BAD-GST 8 μM, variable glucose)	Stimulation of GCK activity (in words) (human pancreatic GCK [2]; glucose 0.5–1.0 mM)
			NLWAAQRYGRELRRM(p)SDKFVD [pBH3, 21-residue phosphorylated peptide containing the BH3 domain of BAD]	significantly impaired in their ability to interact with Bcl-xL	No detectable heat change	do not indicate an interaction	1.5	3.7 mM	31.4 s^-1	no change in GCK activity	does not impact the kcat, K0.5 or Hill coefficient of human GCK		
130 nM	10%	< 15%	BAD-GST: recombinant human BAD with N-terminal hexahistidine tag and C-terminal GST fusion, TEV consensus sequence between (protein, left off: His6, N-terminal, state not stated | GST, C-terminal, kept) MFQIPEFEPSEQEDSSSAERGLGPSPAGDGPSGSGKHHRQAPGLLWDASHQQEQPTSSSHHGGAGAVEIRSRHSSYPAGTEDDEGMGEEPSPFRGRSRSAPPNLWAAQRYGRELRRMSDEFVDSFKKGLPRPKSAGTATQMRQSSSWTRVFQSWWDRNLGRGSSAPSQ									does not alter the kcat, K0.5 or Hill coefficient of GCK	small, but statistically significant extent

Source: article PMC5300155, “Biochemical and biophysical investigations of the interaction between human glucokinase and pro-apoptotic BAD” (PLoS ONE, 2017)
